Test results taken from article PMC2222952, “Structural and Biochemical Bases for the Inhibition of Autophagy and Apoptosis by Viral BCL-2 of Murine γ-Herpesvirus 68” (PLoS Pathogens, 2008).
“Also recorded” adds a separate entry of the source. Ends that are not written are not given here.

What was measured:
[1] = tested on: M11–Beclin1(101–267) complex; assay: Displacement test on M11–Beclin1(101–267) complex; format: binding, murine γ-herpesvirus 68; settings: M11 mixed with Beclin1(101–267) at 1:1 molar ratio, 1 h; BH3 peptide added, additional 1 h; gel
Text: (§1) A newly identified function of BCL-2 is the down regulation of autophagy through their inhibitory binding to Beclin1, which appears critical for cellular homeostasis. […] The weak interaction explains the recent observation that endogenous BH3-only proteins induce autophagy by displacing Beclin1 from BCL-2/BCL-XL [31]. Like the cellular kin, two viral BCL-2 proteins from γHV68 and KSHV are known to inhibit autophagy in addition to suppressing apoptotic death of cells. In this study, we provided the structural basis for the inhibitory interaction of M11 with Beclin1, which is reminiscent of the canonical interaction between a BH3 peptide and a BH3-binding groove. […] As a confirmatory experiment, we carried out a displacement test, where a complex between two proteins was challenged by another protein. […] Conceivably, M11 could negate the proautophagic role of the BH3-only proteins under apoptosis-inducing conditions in contrast with BCL-2/BCL-XL.
The complexes between each of the BH3 peptides and BCL-2 or BCL-XL appeared. The numbers above the gels indicate the final concentrations of the indicated proteins and peptides. The schematic drawings are shown to help to understand the experimental scheme and results. (1.8 MB TIF) Click here for additional data file.

[2] = tested on: BCL-2 ∆C22; design: method as in earlier work; settings: Table S1; relative values, not absolute KD; peptides of Chen et al. are the same as or 1 to 2 residues shorter than those of this paper; read-out: binding affinity for BCL-2 ∆C22 (relative value, competitive binding assay); cited from earlier work
[3] = tested on: BCL-w ∆C29; settings: Table S1; relative values, not absolute KD; peptides of Chen et al. are the same as or 1 to 2 residues shorter than those of this paper; read-out: binding affinity for BCL-w ∆C29 (relative value, competitive binding assay); cited from earlier work
[4] = tested on: A1 ∆C20; design: method as in earlier work; settings: Table S1; relative values, not absolute KD; peptides of Chen et al. are the same as or 1 to 2 residues shorter than those of this paper; read-out: binding affinity for A1 ∆C20 (relative value, competitive binding assay); cited from earlier work
[5] = tested on: BCL-XL ∆C24; settings: Table S1; relative values, not absolute KD; peptides of Chen et al. are the same as or 1 to 2 residues shorter than those of this paper; read-out: binding affinity for BCL-XL ∆C24 (relative value, competitive binding assay); cited from earlier work
[6] = tested on: BCL-2–Beclin1(101–267) complex; assay: Displacement test on BCL-2–Beclin1(101–267) complex; format: binding, human; settings: BCL-2 mixed with Beclin1(101–267) at 1:4 molar ratio, 1 h; BH3 peptide added; gel
Text: as §1
(§2) Each of the DNA fragments coding for M11 (residues 1–137), mouse BCL-XL (residues 1–44 and 85–196) or mouse Beclin1 (residues 101–267) was cloned into pPROEX HTa. A plasmid containing the DNA segment coding for human BCL-2 (residues 1–50 and 92–207) was also constructed. […]

[7] = tested on: MCL ∆N151 ∆C23; design: method as in earlier work; settings: Table S1; relative values, not absolute KD; peptides of Chen et al. are the same as or 1 to 2 residues shorter than those of this paper; read-out: binding affinity for MCL ∆N151 ∆C23 (relative value, competitive binding assay); cited from earlier work
[8] = target: T1, M11, viral BCL-2 of murine γ-herpesvirus 68 (residues 1–137) (Murid herpesvirus 4, UniProt P89884); format: binding; settings: 25 °C, 20 mM Tris-HCl (pH 7.4), 100 mM NaCl
T1 construct: Each of the DNA fragments coding for M11 (residues 1–137); His6 tag; This is inferred: pPROEX HTa encodes an N-terminal His tag with a TEV site, and purification was on Ni-NTA; (N); made in house; host or cells: E. coli BL21(DE3)
T1 sequence (P89884 whole entry, looked up): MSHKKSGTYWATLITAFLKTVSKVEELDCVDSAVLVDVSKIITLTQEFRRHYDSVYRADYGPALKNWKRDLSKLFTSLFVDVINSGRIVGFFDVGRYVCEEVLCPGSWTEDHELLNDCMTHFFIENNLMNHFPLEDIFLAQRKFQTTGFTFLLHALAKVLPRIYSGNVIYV
Text: “HT”, “CCD” and “ECD” denote hydrophobic tail, coiled-coil domain and evolutionarily conserved domain, respectively. […] The surface coloring scheme is as follows: olive for Val, Leu, Ile, Phe, Trp, Met, and Ala; yellow for Cys, Gly, Tyr, and Pro; gray for other amino acids. […] Only the BH3-binding groove region of M11 is shown for clarity. […] The arrows indicate the movements of the Cα atoms of Asp59 and Tyr60 in M11. (C) ITC analysis.
Figure 5 Analyses of the Interactions between M11 or BCL-2 Proteins and BAX/BAK (A) Cell-based binding assay. 293T cells were transfected with HA-tagged BAK or Flag-tagged BAX together with the indicated GST-tagged prosurvival BCL-2 proteins. Whole cell lysates were used for immunoprecipitation with anti-GST followed by immunoblotting with anti-HA or anti-Flag. […] (B) ITC analyses of the interactions of M11 with the BH3 peptides of BAX or BAK. The ITC analysis was carried out by titrating 0.1 mM of the indicated peptides into 5 μM of M11. The ITC run for the titration of the 26-mer BAK peptide is shown. […] NIH3T3 cells were transfected with HA-tagged M11 and whole cell lysates were used for immunoprecipitation with control rabbit serum or anti-BAK followed by immunoblotting with anti-HA.
A plasmid containing the DNA segment coding for human BCL-2 (residues 1–50 and 92–207) was also constructed. The resulting protein lacks the internal long loop (residues 51–91) and contains a replacement of residues 35–50 with residues 33–48 of BCL-XL, which was necessary for the solubility of the protein as reported earlier. Each construct was introduced into the E. coli BL21(DE3) strain. The proteins were expressed at 21 °C overnight and purified using a Ni-NTA column and a Hitrap Q anion exchange column.
All measurements were carried out at 25 °C on a MicroCalorimetry System (MicroCal). Protein samples were dialyzed against the solution containing 20 mM Tris-HCl (pH 7.4) and 100 mM NaCl. The samples were degassed for 20 min and centrifuged to remove any residuals prior to the measurements. Dilution enthalpies were measured in separate experiments (titrant into buffer) and subtracted from the enthalpies of the binding between the protein and the titrant. Data were analyzed using the Origin software (OriginLab Corp.).

[9] = tested on: BCL-XL–Beclin1(101–267) complex; assay: Displacement test on BCL-XL–Beclin1(101–267) complex; format: binding, mouse; settings: BCL-XL mixed with Beclin1(101–267) at 1:4 molar ratio, 1 h; BH3 peptide added; gel
Text: as §1, §2

[10] = target: Beclin1 peptide (UniProt Q14457); settings: cited from earlier work
[11] = target: T2, M11 (residues 1–137), purified alone (murine γ-herpesvirus 68, UniProt P89884 1-137); assay: ITC
T2 chain: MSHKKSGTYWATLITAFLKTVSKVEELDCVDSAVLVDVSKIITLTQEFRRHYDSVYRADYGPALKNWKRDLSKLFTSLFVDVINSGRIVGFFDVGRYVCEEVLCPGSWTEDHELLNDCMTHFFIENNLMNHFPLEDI

[12] = target: T3, M11 (residues 1–137), coexpressed with Beclin1(101–150) (murine γ-herpesvirus 68, UniProt P89884 1-137); assay: crystal structure; settings: both partners purified
T3 sequence: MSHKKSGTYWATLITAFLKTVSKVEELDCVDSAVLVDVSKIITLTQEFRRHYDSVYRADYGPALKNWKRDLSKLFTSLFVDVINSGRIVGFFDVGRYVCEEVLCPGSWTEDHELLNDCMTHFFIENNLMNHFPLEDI

[13] = target: T4, mouse BAD (residues 43–204) (mouse, UniProt Q61337 43-204); assay: crystal structure; BCL-XL (1–44, 85–196) coexpressed and co-purified with BAD(43–204); hanging drop, 4 °C, 10% PEG 1000, 10% PEG 8000; 2.3 Å; settings: both partners purified
T4 sequence (looked up): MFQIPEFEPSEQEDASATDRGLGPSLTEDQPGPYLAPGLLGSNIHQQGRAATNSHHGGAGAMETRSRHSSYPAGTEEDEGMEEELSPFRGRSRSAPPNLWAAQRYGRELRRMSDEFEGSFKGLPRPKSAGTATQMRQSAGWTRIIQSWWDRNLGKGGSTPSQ

BCL-XL, sequence (Q07817 whole entry): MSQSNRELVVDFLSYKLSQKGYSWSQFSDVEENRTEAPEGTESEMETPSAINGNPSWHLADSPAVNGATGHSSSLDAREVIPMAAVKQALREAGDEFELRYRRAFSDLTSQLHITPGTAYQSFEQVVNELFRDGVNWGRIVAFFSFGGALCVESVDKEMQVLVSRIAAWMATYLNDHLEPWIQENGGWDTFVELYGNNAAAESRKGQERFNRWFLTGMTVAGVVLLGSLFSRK

| Molecule | IC50 [2] | IC50 [3] | IC50 [4] | IC50 [5] | further results |
| --- | --- | --- | --- | --- | --- |
| CC[C@H](C)[C@H](NC(=O)[C@H](CCCCN)NC(=O)[C@H](CCCNC(=N)N)NC(=O)[C@H](CC(C)C)NC(=O)[C@H](CCC(N)=O)NC(=O)[C@H](C)NC(=O)[C@H](C)NC(=O)[C@H](Cc1ccccc1)NC(=O)[C@H](CCC(=O)O)NC(=O)[C@@H]1CCCN1C(=O)[C@@H]1CCCN1C(=O)[C@H](CC(C)C)NC(=O)[C@H](CCC(=O)O)NC(=O)[C@H](C)NC(=O)[C@@H](N)CCCNC(=N)N)C(=O)NCC(=O)N[C@@H](CC(=O)O)C(=O)N[C@@H](CCCCN)C(=O)N[C@H](C(=O)N[C@@H](Cc1ccc(O)cc1)C(=O)N[C@@H](CS)C(=O)N[C@H](C(=O)N[C@@H](Cc1c[nH]c2ccccc12)C(=O)N[C@@H](CO)C(=O)N[C@@H](C)C(=O)N1CCC[C@H]1C(=O)O)[C@@H](C)O)C(C)C [Noxa] | > 100000 nM | > 100000 nM | 180 nM | > 100000 nM | displacement of Beclin1(101–267) bound to M11 by BH3 peptide [1]: remained intact; also recorded: failed to displace |
| BAD: synthetic 27-mer BH3 peptide, residues 137–163 of BAD (TATQMRQSSSWTRVFQSWWDRNLGRGS; BH3 peptide; UniProt Q92934 137-163, looked up, fragment) | 16 nM | 30 nM | 15000 nM | 5.3 nM | displacement of Beclin1(101–267) bound to BCL-2 by BH3 peptide [6]: easily disrupted; IC50 [7]: > 100000 nM; interaction with M11 in ITC, in words (KD could not be deduced) [8]: did not interact or poorly interacted; displacement of Beclin1(101–267) bound to BCL-XL by BH3 peptide [9]: easily disrupted |
| BCL-XL (from UniProt Q07817) |  |  |  |  | Kd [10]: 1100 nM |
| EEIIHNIARHLAQIGDEMDHNIQPT [BID] | 6800 nM | 40 nM | 9.3 nM | 82 nM | displacement of Beclin1(101–267) bound to M11 by BH3 peptide [1]: remained intact; also recorded: failed to displace |
| HRAEVQIARKLQCIADQFHRLHTQ [BMF BH3 peptide, 24-mer (residues 214–237 of BMF)] |  |  |  |  | Kd [11]: 300 nM |
| ASDGGTMENLSRRLKVTGDLFDIMSGQTDVDHPLCEECTDTLLDQLDTQL (domain or fragment, mouse, UniProt O88597 101-150, looked up, also called mouse Beclin1 fragment consisting of residues 101–150; 50-residue Beclin1 fragment) [Beclin1(101–150)] |  |  |  |  | binding result [12]: binds |
| mouse BCL-XL (residues 1–44 and 85–196) (domain or fragment, UniProt Q64373-1 1-196, looked up, also called BCL-XL lacking the internal long loop and the C-terminal tail region) MSQSNRELVVDFLSYKLSQKGYSWSQFSDVEENRTEAPEETEAEAVKQALREAGDEFELRYRRAFSDLTSQLHITPGTAYQSFEQVVNELFRDGVNWGRIVAFFSFGGALCVESVDKEMQVLVSRIASWMATYLNDHLEPWIQENGGWDTFVDLYG |  |  |  |  | binding result [13]: binds |
